In US9321756B2, “Azole compounds as PIM inhibitors” (priority 2011, dated 2016):

Assays:
Assay type in all cases: biochemical
[1] = biological target: full length recombinant Pim-3 (Homo sapiens (Human), UniProt Q86V86); assay: Pim enzyme assay (HTRF, phosphorylation of biotinylated-BAD (S112) peptide), Pim-3; details: Pim-3 enzyme assay; read-out: Pim3 IC50
Excerpt: Pim-3 was purchased from Millipore (UK).
The phosphorylation of biotinylated-BAD (S112) peptide by full length recombinant Pim-1, Pim-2, or Pim-3 protein was detected with streptavidin:Allophycocyanin (APC) conjugate and a europium (Eu) labeled antibody directed against phosphorylated-BAD (S112). […] The fluorescence is directly proportional to the amount of phosphorylated BAD peptide present in the reaction.
A reference compound was included on each assay plate in order to validate that plate; on one plate of every assay run, two additional reference compounds were included.
The final buffer conditions were as follows: 60 mM Hepes, pH 7.0, 0.05% BSA, 2 mM DTT. Incubations were carried out at RT (22° C.) for 2 h for Pim-1, 1 h and 30 min for Pim-3, and 45 min for Pim-2. The reaction was then stopped by the addition of 3 mM EDTA, and fluorescence was measured by an HTRF® Rubystar microplate reader. For each plate, percent of control (POC) values were calculated for each well. Values for the IC50 IP were estimated using a standard 4-parameter logistic model.

[2] = biological target: full length recombinant Pim-1 (Homo sapiens (Human), UniProt P11309); assay: Pim enzyme assay (HTRF, phosphorylation of biotinylated-BAD (S112) peptide), Pim-1; details: Pim-1 enzyme assay; read-out: Pim_1_IC50
[3] = biological target: full length recombinant Pim-2 (Homo sapiens (Human), UniProt Q9P1W9); assay: Pim enzyme assay (HTRF, phosphorylation of biotinylated-BAD (S112) peptide), Pim-2; details: Pim-2 enzyme assay; read-out: Pim2_IC50
full length recombinant Pim-2, sequence (Q9P1W9 whole entry): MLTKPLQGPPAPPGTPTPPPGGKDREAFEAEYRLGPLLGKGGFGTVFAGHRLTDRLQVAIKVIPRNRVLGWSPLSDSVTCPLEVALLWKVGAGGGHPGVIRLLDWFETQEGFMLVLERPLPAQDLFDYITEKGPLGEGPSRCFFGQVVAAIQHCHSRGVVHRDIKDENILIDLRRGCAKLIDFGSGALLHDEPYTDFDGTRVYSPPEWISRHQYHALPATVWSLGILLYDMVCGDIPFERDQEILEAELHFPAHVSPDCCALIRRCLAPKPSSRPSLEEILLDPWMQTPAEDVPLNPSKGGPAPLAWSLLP

full length recombinant Pim-1, sequence (P11309 whole entry): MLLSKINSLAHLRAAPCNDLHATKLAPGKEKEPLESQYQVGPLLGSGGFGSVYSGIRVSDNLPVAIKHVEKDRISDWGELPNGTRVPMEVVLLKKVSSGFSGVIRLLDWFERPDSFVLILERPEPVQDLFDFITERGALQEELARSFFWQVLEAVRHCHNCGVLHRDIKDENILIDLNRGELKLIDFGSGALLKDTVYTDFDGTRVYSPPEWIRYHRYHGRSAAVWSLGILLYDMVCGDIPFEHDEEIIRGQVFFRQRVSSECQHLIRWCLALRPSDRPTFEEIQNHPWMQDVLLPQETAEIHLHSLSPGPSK

IC50 [1] [nM]	IC50 [2] [nM]	IC50 [3] [nM]	Compound
90.3	176	237	Nc1nnc(-c2ccc3[nH]cc(-c4cc(C(=O)Nc5ccccc5)ccc4F)c3c2)s1 [Example 137, 3-(5-(5-amino-1,3,4-thiadiazol-2-yl)-1H-indol-3-yl)-4-fluoro-N-phenylbenzamide]
96.7	199	348	Nc1nnc(-c2ccc3[nH]cc(-c4c(F)cccc4F)c3c2)s1 [Example 138, 5-(3-(2,6-difluorophenyl)-1H-indol-5-yl)-1,3,4-thiadiazol-2-amine]
59.5	109	1480	Fc1ccccc1-c1c[nH]c2ccc(-c3nnc(NCc4ccc5[nH]ccc5c4)s3)cc12 [Example 142, 5-(3-(2-fluorophenyl)-1H-indol-5-yl)-N-(1H-indol-5-ylmethyl)-1,3,4-thiadiazol-2-amine]
163	267	1700	NC1CCN(c2nnc(-c3ccc4[nH]cc(-c5ccccc5F)c4c3)s2)CC1 [Example 144, 1-(5-(3-(2-fluorophenyl)-1H-indol-5-yl)-1,3,4-thiadiazol-2-yl)-4-piperidinamine]
308	308	2170	CC(=O)Nc1cccc(CNc2nnc(-c3ccc4[nH]cc(-c5ccccc5F)c4c3)s2)c1 [Example 145, N-(3-(((5-(3-(2-fluorophenyl)-1H-indol-5-yl)-1,3,4-thiadiazol-2-yl)amino)methyl)phenyl)acetamide]
540	365	2510	COCC(=O)Nc1cccc(CNc2nnc(-c3ccc4[nH]cc(-c5ccccc5F)c4c3)s2)c1 [Example 146, N-(3-(((5-(3-(2-fluorophenyl)-1H-indol-5-yl)-1,3,4-thiadiazol-2-yl)amino)methyl)phenyl)-2-methoxyacetamide]
1270	777	> 3000	CC(=O)Nc1ccc(CNc2nnc(-c3ccc4[nH]cc(-c5ccc(F)cc5F)c4c3)s2)cc1 [Example 148, N-(4-(((5-(3-(2,4-difluorophenyl)-1H-indol-5-yl)-1,3,4-thiadiazol-2-yl)amino)methyl)phenyl)acetamide]
522	1050	> 3000	Fc1ccccc1-c1c[nH]c2ccc(-c3nnc(NCc4ccccc4)s3)cc12 [Example 149, N-benzyl-5-(3-(2-fluorophenyl)-1H-indol-5-yl)-1,3,4-thiadiazol-2-amine]
22.5	121	135	Nc1nnc(-c2ccc3[nH]cc(-c4cccc(C(F)(F)F)n4)c3c2)s1 [Example 182, 5-(3-(6-(trifluoromethyl)-2-pyridinyl)-1H-indol-5-yl)-1,3,4-thiadiazol-2-amine]
48.2	156	174	N#Cc1cccc(-c2c[nH]c3ccc(-c4nnc(N)s4)cc23)n1 [Example 183, 6-(5-(5-amino-1,3,4-thiadiazol-2-yl)-1H-indol-3-yl)-2-pyridinecarbonitrile]
68.2	224	244	Nc1nnc(-c2ccc3[nH]cc(-c4cccc(-n5ccccc5=O)n4)c3c2)s1 [Example 185, 6′-(5-(5-amino-1,3,4-thiadiazol-2-yl)-1H-indol-3-yl)-2H-1,2′-bipyridin-2-one]
83.8	260	270	Nc1cc(-c2c[nH]c3ccc(-c4nnc(N)s4)cc23)ccn1 [Example 186, 4-(5-(5-amino-1,3,4-thiadiazol-2-yl)-1H-indol-3-yl)-2-pyridinamine]
73.2	564	690	Nc1nnc(-c2ccc3[nH]cc(-c4cnc(N5CCCC5)cn4)c3c2)s1 [Example 189, 5-(3-(5-(1-pyrrolidinyl)-2-pyrazinyl)-1H-indol-5-yl)-1,3,4-thiadiazol-2-amine]
186	705	977	Nc1cccc(-c2c[nH]c3ccc(-c4nnc(N)s4)cc23)n1 [Example 190, 6-(5-(5-amino-1,3,4-thiadiazol-2-yl)-1H-indol-3-yl)-2-pyridinamine]
266	908	2400	Nc1nnc(-c2ccc3[nH]cc(-c4cnc(N5CCOCC5)cn4)c3c2)s1 [Example 192, 5-(3-(5-(4-morpholinyl)-2-pyrazinyl)-1H-indol-5-yl)-1,3,4-thiadiazol-2-amine]
509	945	1040	Nc1nnc(-c2ccc3[nH]cc(-c4cnc(N5CCCC5=O)cn4)c3c2)s1 [Example 194, 1-(5-(5-(5-amino-1,3,4-thiadiazol-2-yl)-1H-indol-3-yl)-2-pyrazinyl)-2-pyrrolidinone]
506	956	1340	Nc1nnc(-c2ccc3[nH]cc(-c4cnc(OC5CCCC5)cn4)c3c2)s1 [Example 195, 5-(3-(5-(cyclopentyloxy)-2-pyrazinyl)-1H-indol-5-yl)-1,3,4-thiadiazol-2-amine]
918	2070	> 3000	Nc1nnc(-c2ccc3[nH]cc(-c4cccc(O)n4)c3c2)s1 [Example 196, 6-(5-(5-amino-1,3,4-thiadiazol-2-yl)-1H-indol-3-yl)-2-pyridinol]
836	2270	2900	Cc1ccn(-c2cnc(-c3c[nH]c4ccc(-c5nnc(N)s5)cc34)cn2)n1 [Example 197, 5-(3-(5-(3-methyl-1H-pyrazol-1-yl)-2-pyrazinyl)-1H-indol-5-yl)-1,3,4-thiadiazol-2-amine]
165	268	618	COc1cncc(-c2c[nH]c3ccc(-c4nnc(N)s4)cc23)c1 [Example 199, 5-(3-(5-methoxy-3-pyridinyl)-1H-indol-5-yl)-1,3,4-thiadiazol-2-amine]
21.6	110	227	Nc1nnc(-c2ccc3[nH]cc(-c4cccc(NC5CCCCC5)n4)c3c2)s1 [Example 205, 6-(5-(5-amino-1,3,4-thiadiazol-2-yl)-1H-indol-3-yl)-N-cyclohexyl-2-pyridinamine]
149	705	558	Nc1nnc(-c2ccc3[nH]cc(-c4cccc(F)n4)c3c2)s1 [Example 209, 5-(3-(6-fluoro-2-pyridinyl)-1H-indol-5-yl)-1,3,4-thiadiazol-2-amine]
28.7	142	192	Nc1cncc(-c2c[nH]c3ccc(-c4nnc(N)s4)cc23)n1 [Example 210, 6-(5-(5-amino-1,3,4-thiadiazol-2-yl)-1H-indol-3-yl)-2-pyrazinamine]

Compound	IC50 [1] [nM]	IC50 [2] [nM]	IC50 [3] [nM]
Cc1[nH]c2ccc(CNc3nnc(-c4ccc5[nH]cc(-c6ccc(F)cc6F)c5c4)s3)cc2c1C [Example 147, 5-(3-(2,4-difluorophenyl)-1H-indol-5-yl)-N-((2,3-dimethyl-1H-indol-5-yl)methyl)-1,3,4-thiadiazol-2-amine]	634	513	> 3000
CCCCOc1cnc(-c2c[nH]c3ccc(-c4nnc(N)s4)cc23)cn1 [Example 193, 5-(3-(5-butoxy-2-pyrazinyl)-1H-indol-5-yl)-1,3,4-thiadiazol-2-amine]	392	931	1550
